Measurements: PubChem BioAssay AID385 (SGCOxCompounds, 2006)

Target: Casein kinase I isoform gamma-3 (Homo sapiens) (UniProt Q9Y6M4)
Experiment: CSNK1G3 binders by thermal stabilization, biophysical, DSF, SYPRO orange, recombinant protein (AID 385)
Settings: at 10 µM, protein 2 µM, buffer 10 mM HEPES, pH 7.5, NaCl 150 mM, stronger effect = higher value

Casein kinase I isoform gamma-3 (Homo sapiens), sequence (Q9Y6M4 whole entry, looked up, canonical isoform): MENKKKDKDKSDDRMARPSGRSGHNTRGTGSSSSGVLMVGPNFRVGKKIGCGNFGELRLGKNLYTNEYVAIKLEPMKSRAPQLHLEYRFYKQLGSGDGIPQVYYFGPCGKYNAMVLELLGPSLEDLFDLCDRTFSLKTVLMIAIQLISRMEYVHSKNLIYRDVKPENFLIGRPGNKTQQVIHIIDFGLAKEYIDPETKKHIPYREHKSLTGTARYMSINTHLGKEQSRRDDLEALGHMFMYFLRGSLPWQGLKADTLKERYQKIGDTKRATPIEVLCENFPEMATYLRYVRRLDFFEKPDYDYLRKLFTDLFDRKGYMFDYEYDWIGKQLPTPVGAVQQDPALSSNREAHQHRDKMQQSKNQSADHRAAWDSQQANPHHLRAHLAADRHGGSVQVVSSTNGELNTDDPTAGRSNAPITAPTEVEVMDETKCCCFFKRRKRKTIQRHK

Row | Compound | Tm shift
1 | CCN(CC)CCNC(=O)c1c(C)[nH]c(/C=C2\C(=O)Nc3ccc(Cl)cc32)c1C | 4 C
2 | O=Nc1c(-c2c(O)[nH]c3ccc(S(O)(O)O)cc23)[nH]c2ccccc12 | 3.8 C
3 | Nc1nc(Nc2ccc(S(N)(=O)=O)cc2)nn1C(=S)Nc1c(F)cccc1F | 5.4 C
4 | CCn1cnc2c(Nc3cccc(Cl)c3)nc(N[C@@H]3CCCC[C@@H]3N)nc21 | 5.5 C
5 | COc1ccc(Nc2nc(N)c(C(=O)c3ccc(Cl)cc3)s2)cc1 | 3.1 C
6 | Nc1nc(Nc2ccc(F)cc2)sc1C(=O)c1ccccc1 | 3.5 C
7 | O=c1[nH]c(O)c2c1c1c3ccccc3nc1n1cncc21 | 3.5 C
8 | COc1ccc(Nc2nc(N)c(C(=O)c3ccc(OC)cc3)s2)cc1 | 4.9 C
9 | N#C/C(=C1\Nc2ccccc2S1)c1ccnc(NCCc2cccnc2)n1 | 3.5 C
10 | CSc1nc(-c2ccnc(NC(C)c3ccccc3)c2)c(-c2ccc(F)cc2)[nH]1 (stereo unspecified) | 3.5 C
11 | NC1=N/C(=C2/CCNC(=O)c3[nH]c(Br)cc32)C(=O)N1 | 3.5 C
12 | NC(=O)c1ccc(-c2nc(-c3ccc4c(c3)OCCO4)c(-c3ccccn3)[nH]2)cc1 | 6.7 C
13 | CC(C)n1cnc2c(Nc3cccc(Cl)c3)nc(NCCO)nc21 | 7 C
14 | Nc1nc(Nc2cccc(Cl)c2)sc1C(=O)c1ccc(F)cc1 | 4.8 C
15 | Nc1nc(Nc2ccccc2F)sc1C(=O)c1ccc(Br)cc1 | 3.4 C
16 | Nc1nc(Nc2ccccc2)sc1C(=O)c1ccc(F)cc1 | 3.3 C
